US20150366839A1, “Schisantherin A for the treatment of neurodegenerative diseases” (priority 2014, published 2015)

What was measured:
[1] = Blood brain barrier experiment; type: in vivo, rat
Description: To investigate the capability of permeation of blood brain barrier (BBB). On the experimental day, heart perfusion was chosen to clear blood interference at brain under 10% chloralic hydras (i.p. 250 mg/kg) anesthesia, and brain was collected at scheduled time after dosing.
Brain tissues were thawed and homogenized in precooled saline (at the 1:2 g:ml ratio). 250 μl of homogenized solution was added 200 μl acetonitrile and 150 μl methanol. After vortexing for 20 s, centrifugations at 12,000 rpm for 10 min were for the separation. The denatured protein was separated and the supernatant was collected and filtered through a 0.22 μm membrane. A 20 μl volume of the supernatant was injected into HPLC for analysis.
Quantitative analysis of SchiA was completed on an Agilent series 1260 HPLC apparatus (Agilent Technologies, Santa Clara, Calif., USA) equipped with a vacuum degasser, a quaternary pump, a manual sampler and an ultraviolet detector. RP Phenonenex C-18 column (250 mm×4.6 mm, 5 μm) was used to separate at 35° C. with a mobile phase of water and methanol (83:17, v/v). The flow rate was 1 ml/min. The monitoring wavelength of SchiA was 230 nm.
And then non-compartmental model of DAS 2.0 program was chosen to calculate the major pharmacokinetic parameters.
The treatment of brain disorders drugs should pass through the blood-brain barrier (BBB) to regulate certain receptors in the CNS for producing effect. Thus the inventors examined whether SchiA could pass BBB. […] Generally, drug distribution was depends on the free drug concentration in plasma which could affect the supply to the target disuse. […] P-gp, functioning as an ATP-dependent drug pump, efficiently extrudes intracellular drugs out of cells, especially anticancer drugs. After oral administrated to plasma, lots of SchiA were combined at intestines and hardly entered into brain by passing through the barrier of P-gp. But after an i.v. bolus injection, SchiA which liked an impact was directly entered into systemic circulation and P-gp was saturated with SchiA speedily and SchiA couldn't stay at brain as long as plasma despite the concentration was considerable. Therefore, it is rationalized the SchiA passed through BBB caused by i.v. and it has been hypothesized that P-gp is the major determinant of SchiA pharmacokinetics.

[2] = system: SH-SY5Y cells; experiment: MTT neuroprotection against 6-OHDA-induced cytotoxicity; type: cell-based, Human
Description: Human neuroblastoma SH-SY5Y cells were purchased from the American Type Culture Collection (ATCC, Manassas, Va., USA) and cultured in a humidified 5% (v/v) CO2 atmosphere in 37° C. in Dulbecco's Modified Eagle Medium (DMEM) (Life technologies, NY, USA) supplemented with 10% FBS, 1% penicillin (100 U/mL) and streptomycin (100 μg/mL). All experiments were carried out 48 h after the cells were seeded.
Cell viability was determined by 3-(4,5-dimethyl-2-thiazolyl) 2,5-diphenyl-2H-tetrazolium bromide (MTT) assay (Sigma-Aldrich, USA). SH-SY5Y cells were seeded in 96-well plates (1×10^4 cells/well) for 48 h. SH-SY5Y cells were pre-treated with different concentrations of the five lignans (i.e. Schizandrin A, Schizandrin B, SC, Schizandrol A and SchiA) for 12 h and the cell viability was checked by MTT assay. Otherwise, SH-SY5Y cells were pre-treated with different concentrations of the five lignans for 12 h and then exposed to 400 μM 6-OHDA for 4 h. Cells were incubated at 37° C. for 4 h in 0.5 mg/mL MTT solution (prepared in serum free DMEM medium). The medium was then removed, and 100 μL of DMSO was added to each well to dissolve the violet-formazan crystals. The absorbance at 570 nm with 655 nm as a reference wavelength was measured by a multi-label counter (Wallac VICTOR3TMV, Perkin Elmer, Netherlands). Cell viability was expressed as a percentage of the value of the cells without 6-OHDA treatment. The LC50 and EC50 were calculated by GraphPad Prism V5.0 (GraphPad Software, Inc., San Diego, Calif.).
To further study the neuroprotective activities of the five lignans against 6-OHDA-induced cytotoxicity, cells were treated with various concentrations (3, 6, 12, 25, 50 and 100 μM) of the tested compounds for 12 h before exposed to 400 μM 6-OHDA for 4 h.

[3] = system: GSK3β; experiment: GSK3β phosphorylation (Ser9) after 6-OHDA, Western blot; type: cell-based, Human; conditions: pretreated 12 h, then 400 μM 6-OHDA 4 h
Description: After treatment, SH-SY5Y cells were washed three times with PBS and then lysis with RIPA lysis buffer containing 1% PMSF and 1% Protease Inhibitor Cocktail and incubated for 30 min on ice. Cell lysates were centrifuged at 12,500 g for 20 min at 4° C. The supernatant was separated and the amount of protein was determined using the BCA protein assay kit (Thermo Scientific Pierce, USA). Protein samples (30 μg) were separated by SDS-PAGE (10% (w/v)) polyacrylamide gel and then transferred to a polyvinylidene difluoride (PVDF) membrane (Bio-Rad, Hercules, Calif.). Subsequently, the membrane was blocked with 5% (v/v) non-fat milk in PBST (PBS containing 0.1% Tween 20) for 1 h at room temperature. The blots were incubated overnight at 4° C. with primary antibodies. After three washes with PBST, the membranes were incubated with horseradish peroxidase-conjugated secondary antibodies (1:2000) in PBST with 5% non-fat milk for 1 h at room temperature. After repeated washes, proteins were visualized with an ECL advanced western blotting detection kit. Photographs of protein bands were taken by a Molecular Imager ChemiDoc XRS (Bio-Rad, Hercules, Calif.). Quantitative assessment of protein bands was done with Gel Doc™ XRS equipped with Quantity One software. […]

[4] = system: zebrafish larvae; type: in vivo; conditions: 2.5-10 μM with 250 μM 6-OHDA, 4 days, 10 min session
Description: The wild type zebrafish was used for this study.
Zebrafish behaviour was analyzed using a digital video tracking system (Viewpoint ZebraLab system). The system consists of a digital video camera connected to a computer system running the analysis software ZebraLab Man Rev 3.6B.
Moreover, 6-OHDA treatment also markedly altered the swimming behavior of zebrafish. […] Values in FIG. 9 represent the mean±SEM of 12 fish larvae per group of 3-time independent experiments. ###P<0.005 versus control group; *p<0.05, **p<0.01 and *** p<0.005 versus 6-OHDA group. […] The total swimming distance in 10 min travelled by the zebrafish larvae was decreased after exposure to 6-OHDA.

COc1cc2c(c(OC)c1OC)-c1c(cc3c(c1OC)OCO3)C[C@H](C)[C@](C)(O)[C@H]2OC(=O)c1ccccc1 [SchiA, Schisantherin A]
concentration in brain as % of concentration in plasma ([1]; half an hour post-i.v. bolus injection): 54.5% | ability to pass the BBB in vivo ([1]; i.v.): able to traverse the BBB in vivo | detection in brain samples ([1]; i.v., up to 6 h): wasn't detected | detection in brain ([1]; oral administration): wasn't detected | protection against 6-OHDA-induced damage (cell viability) ([2]; 3, 6, 12, 25, 50 and 100 μM for 12 h before 400 μM 6-OHDA 4 h): protected SH-SY5Y cells against 6-OHDA-induced damage in a dose-dependent manner | EC50 ([2]; pre-treated 12 h, then 400 μM 6-OHDA 4 h): 8.1 µM | 6-OHDA-induced repression of GSK3β phosphorylation at serine 9 [3]: completely blocked | 6-OHDA-induced reduction of total distance of movement [4]: inhibited 6-OHDA-induced reduction of total distance of movement by zebrafish in a dose dependent manner
